Measurements published in ChEMBL document CHEMBL1201862, “PubChem BioAssay data set” (2004).
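The compound was tested at five concentrations on cells cultured in 96-well plates, with a 48-hour exposure period. Here, GI50 denotes the concentration required for 50% inhibition of growth.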 Active and inactive are the calls of the source. Rule as the data show it: active = GI50 up to about 1.1 µM and inactive = higher.

Experiments:
Test in all cases: NCI anticancer screen, dose series, 48 h
KM12 = system: KM12
NCI-H460 = system: NCI-H460
Hs-578T = system: Hs-578T
786-0 = system: 786-0
SF-539 = system: SF-539
OVCAR-4 = system: OVCAR-4
MCF7 = system: MCF7
SNB-75 = system: SNB-75
SK-MEL-5 = system: SK-MEL-5
HOP-92 = system: HOP-92
SF-268 = system: SF-268
HOP-62 = system: HOP-62
OVCAR-5 = system: OVCAR-5
MDA-N = system: MDA-N
TK-10 = system: TK-10
A498 = system: A498
IGROV-1 = system: IGROV-1
RPMI-8226 = system: RPMI-8226
K562 = system: K562
MOLT-4 = system: MOLT-4

Measured: GI50

CC(=O)n1c(COS(C)(=O)=O)nc2ccccc21
inactive: KM12 > 100 µM | NCI-H460 > 100 µM | Hs-578T > 100 µM | 786-0 > 100 µM | SF-539 > 100 µM | OVCAR-4 > 100 µM | MCF7 79.3 µM | SNB-75 > 100 µM | SK-MEL-5 > 100 µM | HOP-92 > 100 µM | SF-268 > 100 µM | HOP-62 50.2 µM | OVCAR-5 > 100 µM | MDA-N > 100 µM | TK-10 > 100 µM | A498 > 100 µM | IGROV-1 66.1 µM

S=C(N/N=C\C=N/NC(=S)N1CCCCCC1)N1CCCCCC1
inactive: KM12 18.7 µM | NCI-H460 3.93 µM | Hs-578T 32.8 µM | 786-0 14.3 µM | SF-539 64.9 µM | MCF7 14.3 µM | SNB-75 22.5 µM | SK-MEL-5 14.2 µM | HOP-92 59 µM | SF-268 10.5 µM | HOP-62 9.12 µM | OVCAR-5 > 100 µM | MDA-N > 68.1 µM | TK-10 57.9 µM | A498 57.3 µM | RPMI-8226 > 100 µM | K562 9.14 µM | MOLT-4 7.1 µM | IGROV-1 26 µM

Cc1ccc(NC(=O)c2cccc(OP(=O)(Nc3ccc(C)cc3)Nc3ccc(C)cc3)c2)cc1
inactive: KM12 5.5 µM | NCI-H460 3.88 µM | Hs-578T 6.3 µM | 786-0 19.9 µM | SF-539 23.3 µM | OVCAR-4 14 µM | MCF7 5.62 µM | SNB-75 4.14 µM | SK-MEL-5 13.2 µM | HOP-92 3.23 µM | SF-268 43.1 µM | HOP-62 28.7 µM | OVCAR-5 38.5 µM | MDA-N 3.78 µM | TK-10 7.52 µM | A498 18.1 µM | K562 > 100 µM | MOLT-4 2.61 µM | IGROV-1 15.1 µM

COc1cccc2[nH]c(-c3ccccn3)nc12
inactive: KM12 > 100 µM | NCI-H460 86.7 µM | Hs-578T 68.9 µM | 786-0 > 100 µM | SF-539 > 100 µM | OVCAR-4 > 100 µM | MCF7 > 100 µM | SNB-75 > 100 µM | SK-MEL-5 > 100 µM | HOP-92 > 100 µM | SF-268 72.4 µM | HOP-62 74 µM | OVCAR-5 > 100 µM | MDA-N > 100 µM | TK-10 > 100 µM | A498 > 100 µM | RPMI-8226 32.4 µM | K562 > 100 µM | IGROV-1 > 100 µM

N=C(N)N/N=C/c1nc2sccn2c1[N+](=O)[O-]
inactive: KM12 16.6 µM | NCI-H460 18.5 µM | Hs-578T 24.7 µM | 786-0 43 µM | SF-539 36.8 µM | OVCAR-4 13.7 µM | MCF7 18 µM | SNB-75 11.3 µM | SK-MEL-5 18.7 µM | HOP-92 68.9 µM | SF-268 33.3 µM | HOP-62 37.8 µM | OVCAR-5 > 100 µM | MDA-N 19.6 µM | TK-10 85.3 µM | A498 56.1 µM | RPMI-8226 82.4 µM | K562 18.7 µM | IGROV-1 60.4 µM

O=C1/C(=C/c2ccc(Cl)cc2)CSc2ccccc21
inactive: KM12 10.1 µM | NCI-H460 28.7 µM | Hs-578T 4.57 µM | 786-0 17.5 µM | SF-539 17.8 µM | OVCAR-4 36.1 µM | MCF7 2.26 µM | SNB-75 31.9 µM | SK-MEL-5 20.6 µM | HOP-92 33.6 µM | SF-268 22.5 µM | HOP-62 20.5 µM | MDA-N 5.78 µM | TK-10 42.2 µM | A498 62.5 µM | RPMI-8226 2.31 µM | K562 3.37 µM | MOLT-4 5.55 µM | IGROV-1 23.7 µM

N=C1CCCC1C(=S)SCCC(N)=O (stereo not given)
inactive: KM12 > 100 µM | NCI-H460 > 100 µM | Hs-578T > 100 µM | 786-0 > 100 µM | SF-539 > 100 µM | OVCAR-4 > 100 µM | MCF7 > 100 µM | SNB-75 61.4 µM | SK-MEL-5 > 100 µM | HOP-92 > 100 µM | SF-268 > 100 µM | HOP-62 > 100 µM | OVCAR-5 > 100 µM | MDA-N > 100 µM | TK-10 > 100 µM | A498 > 100 µM | RPMI-8226 > 100 µM | MOLT-4 > 100 µM | IGROV-1 > 100 µM

Cc1cccc(CNNC(=O)c2cc[n+]([BH2-]C#N)cc2)c1
inactive: KM12 22.6 µM | NCI-H460 36.5 µM | Hs-578T 21.6 µM | 786-0 30.7 µM | OVCAR-4 42 µM | MCF7 36.5 µM | SNB-75 21.7 µM | SK-MEL-5 17.2 µM | HOP-92 4.47 µM | SF-268 26.7 µM | HOP-62 38 µM | OVCAR-5 37.5 µM | MDA-N 29.2 µM | TK-10 53.7 µM | A498 24.7 µM | RPMI-8226 24.8 µM | K562 26.9 µM | MOLT-4 28.2 µM | IGROV-1 22 µM
